# From PubChem BioAssay (NCI)
#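 Step 1: Grow cells in 96-well plates. Step 2: Expose to compound for 48 hours at 5 concentrations. Step 3: Interpolate endpoints linearly; if unreached, use highest concentration. Abbreviation: GI50, concentration required for 50% inhibition of growth. TGI: concentration producing complete growth inhibition.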
# Assays:
# Assay in all cases: NCI tumour cell line growth inhibition, 48 h
# HOP-62 NSCLC = tested on: HOP-62 NSCLC
# SK-MEL-2 melanoma = tested on: SK-MEL-2 melanoma
# OVCAR-8 ovarian = tested on: OVCAR-8 ovarian
# OVCAR-5 ovarian = tested on: OVCAR-5 ovarian
# HCC-2998 colon = tested on: HCC-2998 colon
# UACC-62 melanoma = tested on: UACC-62 melanoma
# SNB-75 CNS = tested on: SNB-75 CNS
# SF-268 CNS = tested on: SF-268 CNS
# NCI-H23 lung = tested on: NCI-H23 lung
# SW-620 colon = tested on: SW-620 colon
# MDA-MB-468 breast = tested on: MDA-MB-468 breast
# NCI-H460 lung = tested on: NCI-H460 lung
# HCT-15 colon = tested on: HCT-15 colon
# IGROV1 ovarian = tested on: IGROV1 ovarian
# UO-31 renal = tested on: UO-31 renal
# MDA-MB-231 breast = tested on: MDA-MB-231 breast
# NCI-H522 lung = tested on: NCI-H522 lung
# LOX IMVI melanoma = tested on: LOX IMVI melanoma
# TK-10 renal = tested on: TK-10 renal
# ACHN renal = tested on: ACHN renal
# SR leukemia = tested on: SR leukemia
# 786-0 renal = tested on: 786-0 renal
# M14 melanoma = tested on: M14 melanoma
# BT-549 breast = tested on: BT-549 breast
# SF-295 CNS = tested on: SF-295 CNS
# NCI/ADR-RES ovarian = tested on: NCI/ADR-RES ovarian
# K-562 leukemia = tested on: K-562 leukemia
# OVCAR-3 ovarian = tested on: OVCAR-3 ovarian
# EKVX NSCLC = tested on: EKVX NSCLC
# DU-145 prostate = tested on: DU-145 prostate
# HS 578T breast = tested on: HS 578T breast
# RPMI-8226 leukemia = tested on: RPMI-8226 leukemia
# SK-OV-3 ovarian = tested on: SK-OV-3 ovarian
# UACC-257 melanoma = tested on: UACC-257 melanoma
# COLO 205 colon = tested on: COLO 205 colon
# SNB-19 CNS = tested on: SNB-19 CNS
# A498 renal = tested on: A498 renal
# PC-3 prostate = tested on: PC-3 prostate
# SK-MEL-28 melanoma = tested on: SK-MEL-28 melanoma
# OVCAR-4 ovarian = tested on: OVCAR-4 ovarian
# SN12C renal = tested on: SN12C renal
# HT29 colon = tested on: HT29 colon
# SF-539 CNS = tested on: SF-539 CNS
# A549 NSCLC = tested on: A549 NSCLC
# MDA-MB-435 = tested on: MDA-MB-435
# T-47D breast = tested on: T-47D breast
# KM12 colon = tested on: KM12 colon
# CAKI-1 renal = tested on: CAKI-1 renal
# MCF7 breast = tested on: MCF7 breast
# U251 CNS = tested on: U251 CNS
# CCRF-CEM leukemia = tested on: CCRF-CEM leukemia
# SK-MEL-5 melanoma = tested on: SK-MEL-5 melanoma
# HCT-116 colon = tested on: HCT-116 colon
# HL-60(TB) leukemia = tested on: HL-60(TB) leukemia
# NCI-H226 lung = tested on: NCI-H226 lung
# MALME-3M melanoma = tested on: MALME-3M melanoma
# RXF 393 renal = tested on: RXF 393 renal
# MOLT-4 leukemia = tested on: MOLT-4 leukemia
# HOP-92 NSCLC = tested on: HOP-92 NSCLC
structure (smiles),measurement,setting,value
COc1ccc2[nH]c(O)c(N=NC(=O)COc3ccc(NC(=O)Nc4ccc(Cl)cc4)cc3)c2c1,GI50,HOP-62 NSCLC,2.54 µM
same,TGI,HOP-62 NSCLC,6.4 µM
same,GI50,SK-MEL-2 melanoma,2.08 µM
same,TGI,SK-MEL-2 melanoma,4.41 µM
same,GI50,OVCAR-8 ovarian,10.5 µM
same,TGI,OVCAR-8 ovarian,37.9 µM
same,GI50,OVCAR-5 ovarian,6.34 µM
same,TGI,OVCAR-5 ovarian,20 µM
same,GI50,HCC-2998 colon,5.33 µM
same,TGI,HCC-2998 colon,25.9 µM
same,GI50,UACC-62 melanoma,2.23 µM
same,TGI,UACC-62 melanoma,5.8 µM
same,GI50,SNB-75 CNS,8.94 µM
same,TGI,SNB-75 CNS,27.7 µM
same,GI50,SF-268 CNS,3.3 µM
same,TGI,SF-268 CNS,10.4 µM
same,GI50,NCI-H23 lung,2.68 µM
same,TGI,NCI-H23 lung,8.54 µM
same,GI50,SW-620 colon,2.61 µM
same,TGI,SW-620 colon,13.2 µM
same,GI50,MDA-MB-468 breast,1.85 µM
same,TGI,MDA-MB-468 breast,4.61 µM
same,GI50,NCI-H460 lung,1.84 µM
same,TGI,NCI-H460 lung,3.97 µM
same,GI50,HCT-15 colon,> 100 µM
same,TGI,HCT-15 colon,> 100 µM
same,GI50,IGROV1 ovarian,8.74 µM
same,TGI,IGROV1 ovarian,21.6 µM
same,GI50,UO-31 renal,> 100 µM
same,TGI,UO-31 renal,> 100 µM
same,GI50,MDA-MB-231 breast,1.8 µM
same,TGI,MDA-MB-231 breast,3.75 µM
same,GI50,NCI-H522 lung,2.23 µM
same,TGI,NCI-H522 lung,5.85 µM
same,GI50,LOX IMVI melanoma,1.87 µM
same,TGI,LOX IMVI melanoma,3.81 µM
same,GI50,TK-10 renal,20.8 µM
same,TGI,TK-10 renal,48.3 µM
same,GI50,ACHN renal,19.3 µM
same,TGI,ACHN renal,58.8 µM
same,GI50,SR leukemia,4.15 µM
same,TGI,SR leukemia,> 100 µM
same,GI50,786-0 renal,7.32 µM
same,TGI,786-0 renal,24.9 µM
same,GI50,M14 melanoma,2.61 µM
same,TGI,M14 melanoma,7.88 µM
same,GI50,BT-549 breast,12.1 µM
same,TGI,BT-549 breast,26.6 µM
same,GI50,SF-295 CNS,6.63 µM
same,TGI,SF-295 CNS,20.1 µM
same,GI50,NCI/ADR-RES ovarian,> 100 µM
same,TGI,NCI/ADR-RES ovarian,> 100 µM
same,GI50,K-562 leukemia,5.36 µM
same,TGI,K-562 leukemia,> 100 µM
same,GI50,OVCAR-3 ovarian,2.21 µM
same,TGI,OVCAR-3 ovarian,6.34 µM
same,GI50,EKVX NSCLC,18.7 µM
same,TGI,EKVX NSCLC,> 100 µM
same,GI50,DU-145 prostate,4.14 µM
same,TGI,DU-145 prostate,20.7 µM
same,GI50,HS 578T breast,2.8 µM
same,TGI,HS 578T breast,13.4 µM
same,GI50,RPMI-8226 leukemia,6.58 µM
same,TGI,RPMI-8226 leukemia,68.8 µM
same,GI50,SK-OV-3 ovarian,12.7 µM
same,TGI,SK-OV-3 ovarian,27.6 µM
same,GI50,UACC-257 melanoma,13.1 µM
same,TGI,UACC-257 melanoma,28.2 µM
same,GI50,COLO 205 colon,3.63 µM
same,TGI,COLO 205 colon,13.2 µM
same,GI50,SNB-19 CNS,3 µM
same,TGI,SNB-19 CNS,10.9 µM
same,GI50,A498 renal,17.1 µM
same,TGI,A498 renal,31.8 µM
same,GI50,PC-3 prostate,3.39 µM
same,TGI,PC-3 prostate,14.9 µM
same,GI50,SK-MEL-28 melanoma,1.81 µM
same,TGI,SK-MEL-28 melanoma,3.56 µM
same,GI50,OVCAR-4 ovarian,2.94 µM
same,TGI,OVCAR-4 ovarian,11 µM
same,GI50,SN12C renal,3.03 µM
same,TGI,SN12C renal,11.4 µM
same,GI50,HT29 colon,3.22 µM
same,TGI,HT29 colon,14 µM
same,GI50,SF-539 CNS,2.42 µM
same,TGI,SF-539 CNS,6.86 µM
same,GI50,A549 NSCLC,8.39 µM
same,TGI,A549 NSCLC,44.4 µM
same,GI50,MDA-MB-435,1.75 µM
same,TGI,MDA-MB-435,4.77 µM
same,GI50,T-47D breast,9.57 µM
same,TGI,T-47D breast,23.9 µM
same,GI50,KM12 colon,3.21 µM
same,TGI,KM12 colon,13.4 µM
same,GI50,CAKI-1 renal,16.6 µM
same,TGI,CAKI-1 renal,33.7 µM
same,GI50,MCF7 breast,2.88 µM
same,TGI,MCF7 breast,10.2 µM
same,GI50,U251 CNS,4.16 µM
same,TGI,U251 CNS,14.5 µM
same,GI50,CCRF-CEM leukemia,5.39 µM
same,TGI,CCRF-CEM leukemia,26.3 µM
same,GI50,SK-MEL-5 melanoma,5.9 µM
same,TGI,SK-MEL-5 melanoma,18.9 µM
same,GI50,HCT-116 colon,2.96 µM
same,TGI,HCT-116 colon,11.5 µM
same,GI50,HL-60(TB) leukemia,23.6 µM
same,TGI,HL-60(TB) leukemia,> 100 µM
same,GI50,NCI-H226 lung,3.74 µM
same,TGI,NCI-H226 lung,16.8 µM
same,GI50,MALME-3M melanoma,1.77 µM
same,TGI,MALME-3M melanoma,3.61 µM
same,GI50,RXF 393 renal,6.26 µM
same,TGI,RXF 393 renal,22.2 µM
same,GI50,MOLT-4 leukemia,9.72 µM
same,TGI,MOLT-4 leukemia,51.2 µM
same,GI50,HOP-92 NSCLC,2.43 µM
same,TGI,HOP-92 NSCLC,7.31 µM
